Measured values reported in ChEMBL document CHEMBL3885881, “DrugMatrix”.

Species on record: Rattus norvegicus
Assay: DrugMatrix - Regimen: Daily Repeat
Assay type: toxicity, organism-based, Sprague-Dawley
Set-up: regimen Daily Repeat, gender Male, age 6-8 weeks
Settings: in vivo; for ABSOLUTE BASOPHIL / ABSOLUTE EOSINOPHIL / ABSOLUTE LYMPHOCYTE / ABSOLUTE MONOCYTE / ABSOLUTE SEGMENTED NEUTROPHIL / BASOPHIL / EOSINOPHIL / ERYTHROCYTE COUNT / HEMOGLOBIN / LEUKOCYTE COUNT / LYMPHOCYTE / MEAN CORPUSCULAR HEMOGLOBIN / MEAN CORPUSCULAR HEMOGLOBIN CONCENTRATION / MEAN CORPUSCULAR VOLUME / MONOCYTE / NEUTROPHIL / NUCLEATED RED BLOOD CELLS / PLATELET COUNT / HEMATOCRIT: tissue Blood; for ALANINE AMINOTRANSFERASE / ALKALINE PHOSPHATASE / ASPARTATE AMINOTRANSFERASE / CARBON DIOXIDE / CHOLESTEROL / CREATINE PHOSPHOKINASE / CREATININE / LACTATE DEHYDROGENASE / POTASSIUM / SODIUM / TOTAL BILIRUBIN / TOTAL PROTEIN / ALBUMIN / BLOOD UREA NITROGEN / CHLORIDE / GLUCOSE / LIPASE / PHOSPHORUS / URIC ACID: tissue Plasma
[1] = iv, 55 mg/kg, 72 h, dose level Low, time 3 day, vehicle 100 % SALINE
[2] = iv, 55 mg/kg, 120 h, dose level Low, time 5 day, vehicle 100 % SALINE
[3] = po, 0 mg/kg, 72 h, route oral GAVAGE, dose level Control, time 3 day, vehicle .5 % CMC
[4] = po, 0 mg/kg, 120 h, route oral GAVAGE, dose level Control, time 5 day, vehicle .5 % CMC

## GADOPENTETATE DIMEGLUMINE
[1]
  ABSOLUTE BASOPHIL: 0 CELLS/uL
  ABSOLUTE EOSINOPHIL: 43.67 CELLS/uL
  ABSOLUTE LYMPHOCYTE: 9839.33 CELLS/uL
  ABSOLUTE MONOCYTE: 219.67 CELLS/uL
  ABSOLUTE SEGMENTED NEUTROPHIL: 564 CELLS/uL
  BASOPHIL: 0%
  EOSINOPHIL: 0.33%
  ERYTHROCYTE COUNT: 5.53 x10E6/uL
  HEMOGLOBIN: 13.6 G/DL
  LEUKOCYTE COUNT: 10.67 x10E3/uL
  LYMPHOCYTE: 92.67%
  MEAN CORPUSCULAR HEMOGLOBIN: 24.63 pg
  MEAN CORPUSCULAR HEMOGLOBIN CONCENTRATION: 37.3 G/DL
  MEAN CORPUSCULAR VOLUME: 66.07 fL
  MONOCYTE: 2%
  NEUTROPHIL: 5%
  NUCLEATED RED BLOOD CELLS: 0 /100WBC
  PLATELET COUNT: 1301 x10E3/uL
  ALANINE AMINOTRANSFERASE: 40 u/L
  ALKALINE PHOSPHATASE: 398.33 u/L
  ASPARTATE AMINOTRANSFERASE: 87.67 u/L
  CARBON DIOXIDE: 23.33 mmol/L
  CHOLESTEROL: 81.33 mg/dL
  CREATINE PHOSPHOKINASE: 415.67 u/L
  CREATININE: 0.21 mg/dL
  LACTATE DEHYDROGENASE: 589.67 u/L
  POTASSIUM: 6.91 MEQ/L
  SODIUM: 145.83 MEQ/L
  TOTAL BILIRUBIN: 0.2 mg/dL
  TOTAL PROTEIN: 6.1 G/DL
[2]
  ABSOLUTE BASOPHIL: 0 CELLS/uL
  ABSOLUTE EOSINOPHIL: 278.33 CELLS/uL
  ABSOLUTE LYMPHOCYTE: 15424.33 CELLS/uL
  ABSOLUTE MONOCYTE: 421.67 CELLS/uL
  ABSOLUTE SEGMENTED NEUTROPHIL: 1375.67 CELLS/uL
  BASOPHIL: 0%
  ERYTHROCYTE COUNT: 5.85 x10E6/uL
  HEMATOCRIT: 36.97%
  HEMOGLOBIN: 14.03 G/DL
  LEUKOCYTE COUNT: 17.5 x10E3/uL
  LYMPHOCYTE: 88%
  MEAN CORPUSCULAR HEMOGLOBIN: 24.07 pg
  MEAN CORPUSCULAR HEMOGLOBIN CONCENTRATION: 37.97 G/DL
  NEUTROPHIL: 8%
  NUCLEATED RED BLOOD CELLS: 0 /100WBC
  PLATELET COUNT: 1344.67 x10E3/uL
  ALANINE AMINOTRANSFERASE: 53.33 u/L
  ALBUMIN: 4.2 G/DL
  ALKALINE PHOSPHATASE: 358.67 u/L
  ASPARTATE AMINOTRANSFERASE: 83 u/L
  BLOOD UREA NITROGEN: 16.67 mg/dL
  CARBON DIOXIDE: 26.33 mmol/L
  CHLORIDE: 106.67 MEQ/L
  CHOLESTEROL: 68 mg/dL
  CREATINE PHOSPHOKINASE: 219.67 u/L
  CREATININE: 0.19 mg/dL
  GLUCOSE: 172 mg/dL
  LACTATE DEHYDROGENASE: 98 u/L
  LIPASE: 10 u/L
  PHOSPHORUS: 12.93 mg/dL
  POTASSIUM: 6.64 MEQ/L
  SODIUM: 146.2 MEQ/L
  TOTAL BILIRUBIN: 0.2 mg/dL
  TOTAL PROTEIN: 6.13 G/DL
  URIC ACID: 2.37 mg/dL

## C[C@H]1O[C@@H](n2cc(F)c(=O)[nH]c2=O)[C@H](O)[C@@H]1O [DOXIFLURIDINE]
[3]
  ABSOLUTE BASOPHIL: 0 CELLS/uL
  ABSOLUTE EOSINOPHIL: 0 CELLS/uL
  ABSOLUTE LYMPHOCYTE: 12191.17 CELLS/uL
  ABSOLUTE MONOCYTE: 183.17 CELLS/uL
  ABSOLUTE SEGMENTED NEUTROPHIL: 1192.33 CELLS/uL
  BASOPHIL: 0%
  EOSINOPHIL: 0%
  ERYTHROCYTE COUNT: 5.51 x10E6/uL
  HEMATOCRIT: 35.45%
  HEMOGLOBIN: 13.82 G/DL
  LEUKOCYTE COUNT: 13.57 x10E3/uL
  LYMPHOCYTE: 89.83%
  MEAN CORPUSCULAR HEMOGLOBIN: 25.1 pg
  MEAN CORPUSCULAR HEMOGLOBIN CONCENTRATION: 38.98 G/DL
  MEAN CORPUSCULAR VOLUME: 64.42 fL
  MONOCYTE: 1.33%
  NEUTROPHIL: 8.83%
  NUCLEATED RED BLOOD CELLS: 0 /100WBC
  PLATELET COUNT: 1118.17 x10E3/uL
  ALANINE AMINOTRANSFERASE: 55 u/L
  ALBUMIN: 4.15 G/DL
  ALKALINE PHOSPHATASE: 449.5 u/L
  ASPARTATE AMINOTRANSFERASE: 112.83 u/L
  BLOOD UREA NITROGEN: 17.33 mg/dL
  CARBON DIOXIDE: 29.5 mmol/L
  CHLORIDE: 101 MEQ/L
  CHOLESTEROL: 70 mg/dL
  CREATINE PHOSPHOKINASE: 1325.83 u/L
  CREATININE: 0.18 mg/dL
  GLUCOSE: 171.5 mg/dL
  LACTATE DEHYDROGENASE: 386 u/L
  LIPASE: 10 u/L
  PHOSPHORUS: 11.57 mg/dL
  POTASSIUM: 6.21 MEQ/L
  SODIUM: 141.65 MEQ/L
  TOTAL BILIRUBIN: 0.15 mg/dL
  TOTAL PROTEIN: 5.75 G/DL
  URIC ACID: 1.28 mg/dL
[4]
  ABSOLUTE BASOPHIL: 0 CELLS/uL
  ABSOLUTE EOSINOPHIL: 138.17 CELLS/uL
  ABSOLUTE LYMPHOCYTE: 13283.17 CELLS/uL
  ABSOLUTE MONOCYTE: 303.83 CELLS/uL
  ABSOLUTE SEGMENTED NEUTROPHIL: 1308.17 CELLS/uL
  BASOPHIL: 0%
  EOSINOPHIL: 1%
  ERYTHROCYTE COUNT: 5.32 x10E6/uL
  HEMATOCRIT: 33.8%
  HEMOGLOBIN: 13.63 G/DL
  LEUKOCYTE COUNT: 15.03 x10E3/uL
  LYMPHOCYTE: 88.33%
  MEAN CORPUSCULAR HEMOGLOBIN: 25.68 pg
  MEAN CORPUSCULAR HEMOGLOBIN CONCENTRATION: 40.35 G/DL
  MEAN CORPUSCULAR VOLUME: 63.67 fL
  MONOCYTE: 1.83%
  NEUTROPHIL: 8.83%
  NUCLEATED RED BLOOD CELLS: 0 /100WBC
  PLATELET COUNT: 1097.5 x10E3/uL
  ALANINE AMINOTRANSFERASE: 54.5 u/L
  ALBUMIN: 4.27 G/DL
  ALKALINE PHOSPHATASE: 337 u/L
  ASPARTATE AMINOTRANSFERASE: 94.67 u/L
  BLOOD UREA NITROGEN: 17 mg/dL
  CARBON DIOXIDE: 28.33 mmol/L
  CHLORIDE: 101.5 MEQ/L
  CHOLESTEROL: 71.33 mg/dL
  CREATINE PHOSPHOKINASE: 628.17 u/L
  CREATININE: 0.19 mg/dL
  GLUCOSE: 177.83 mg/dL
  LACTATE DEHYDROGENASE: 500.5 u/L
  LIPASE: 9.5 u/L
  PHOSPHORUS: 12.3 mg/dL
  POTASSIUM: 5.63 MEQ/L
  SODIUM: 143.03 MEQ/L
  TOTAL BILIRUBIN: 0.2 mg/dL
  TOTAL PROTEIN: 6.02 G/DL
  URIC ACID: 1.5 mg/dL
